The values below come from the METLIN SMRT retention time set (Domingo-Almenara et al. 2019).

Molecules are shown by their SMILES.

The series is described as follows: gradient 5% acetonitrile 3 min, to 50% in 2 min, to 85% in 15 min, held 3 min, 100 µL/min. Conditions: column: Zorbax Extend-C18 2.1 x 50 mm; eluents: water / acetonitrile, 0.1% formic acid. The gist of the method: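 Standards, all pure, were combined into mixtures of ~100 molecules and run at 100 μL/min on a Zorbax Extend-C18 column (2.1 × 50 mm, 1.8 μm) with water and acetonitrile, each containing 0.1% formic acid. A coupled quadrupole time-of-flight mass spectrometer operated in positive and negative ionization mode. Retention time values come from computationally picked adduct peaks, each inspected manually.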
The molecule `CC1CCN(S(=O)(=O)c2ccc(-c3cc(C(F)(F)F)on3)o2)CC1` displayed an RP-LC retention time of 1190 s.
Molecule `CCOc1ccc(C(=O)Nc2cnn(-c3ncncc3N3CCC(C)CC3)c2)cc1` showed an RP-LC retention time of 929 s.
Molecule `COc1ccc(-c2nnc(Cc3nc(C(C)C)no3)o2)cc1` gave an RP-LC retention time of 858 s.
In the case of `CCOC(=O)C(C)Sc1nnc2n1CCN2c1ccc(F)cc1` (stereo not given), the RP-LC retention time worked out at 718 s.
Take `CC1CCN(S(=O)(=O)c2ccc(-c3nnc(C(=O)N4CCN(C)CC4)o3)cc2)CC1`: the RP-LC retention time was found to be 665 s.
As to `CCc1cccc(NC(=O)Cn2c(=O)c3cc(C4CC4)nn3c3ncccc32)c1`, the RP-LC retention time amounted to 844 s.
Next, `CC(=O)NCCCCCCNC(C)=O`: 604 s.
`CCOC(=O)c1c(C)[nH]c(C(=O)N2CCC(CC(=O)NCc3ccc(F)cc3)CC2)c1C` had an RP-LC retention time of 780 s.
The molecule `COC(=O)c1[nH]c(C)c(C(=O)C(C)N(CC2CCCCC2)C(=O)c2ccc(OC)cc2)c1C` (stereo not given) yielded an RP-LC retention time of 708 s.
`Cc1ccc(C(=O)NCCc2cn3ccsc3n2)cc1[N+](=O)[O-]` showed an RP-LC retention time of 559 s.
Turning to `CC1=C(c2ccc(F)cc2)S(=O)(=O)N=C1N1CCCN(C(=O)NC2CCCC2)CC1`, the RP-LC retention time was 820 s.
Consider `CCn1cc(C(=O)Nc2ccc(F)c(Cl)c2)c2cccnc21`, for which the RP-LC retention time turned out to be 965 s.
Turning to `Nc1ccc(C(=O)Oc2ccc([N+](=O)[O-])cc2)cc1`, the RP-LC retention time is 926 s.
The molecule `CC(C)NC(=O)c1ccc(Cn2c(SCC#N)nc3cc4c(cc3c2=O)OCO4)cc1` displayed an RP-LC retention time of 759 s.
Next, `O=C(c1cc(-c2ccncc2)n[nH]1)N1CCC(C(=O)N2CCN(C(=O)c3ccco3)CC2)CC1`: 566 s.
Next, `CC(=O)N1CCc2cc(S(=O)(=O)C(C)CC(=O)N3CCN(c4ccc(Cl)cc4)CC3)ccc21` (stereo not given): 870 s; `Cc1cc(Nc2nc3ccncc3n(C(C)C)c2=O)ccc1F`: 679 s; `O=C(NC1CCCCC1)C1CCN(Cc2cc3ccccc3n2Cc2cccc(Cl)c2)CC1`: 847 s.
In the case of `CCc1ccccc1N1C(=O)CN(S(=O)(=O)CC)CC1(C)C(=O)NCc1ccc(F)cc1` (stereo not given), the RP-LC retention time is 892 s.
Regarding `CCCN1C(=O)c2cc(S(=O)(=O)NCc3ccccc3F)ccc2Oc2cccnc21`, the RP-LC retention time came to 1030 s.
In turn, `OCCN1CCN(CC(O)COc2ccc3c(c2)CCC3)CC1` (stereo not given) yielded an RP-LC retention time of 553 s.
With `O=C(NCc1csc(-c2cccs2)n1)C1CCN(S(=O)(=O)c2cccc(Cl)c2)CC1` the figure was 927 s.
`Nc1ccc2nc3ccc(=O)cc-3n(-c3ccccc3)c2c1` returned an RP-LC retention time of 614 s.
`O=C(O)c1ccc(N2CCCC(CN3CCCC3)C2)c(NS(=O)(=O)c2cccc(F)c2)c1` (stereo not given): the RP-LC retention time was 648 s.
Molecule `CCOc1ccc(NC(=O)N2CCC3(C2)C(=O)Nc2ccc(OC)cc23)cc1` (stereo not given) showed an RP-LC retention time of 731 s.
The molecule `Cc1cc(-c2ccc(S(=O)(=O)N3CCC(C(=O)NC4CCCC4)CC3)o2)n[nH]1` came in with an RP-LC retention time of 737 s.
`COc1cccc(CNC(=O)N2CCCC2c2cc(C(C)C)no2)c1` (stereo not given) returned an RP-LC retention time of 836 s.
In the case of `O=C(CCc1conc1-c1ccccc1)N1CCC(N2CCCCC2)CC1`, the RP-LC retention time was 616 s.
`O=C(Nc1cc(F)ccc1F)C1CCN(C(=O)c2cccn2-c2cccnc2)CC1` had an RP-LC retention time of 728 s.
In the case of `CC(CCc1ccccc1)NC(=O)CCc1c(-c2ccc(Cl)cc2)nc2ccccn12` (stereo not given), the RP-LC retention time was determined as 774 s.
With `CCn1cc(C(CNC(=O)Nc2ccc(OC)cc2OC)c2cccnc2)c2ccccc21` (stereo not given) the figure was 700 s.
As to `Cc1c(F)cccc1NC(=O)Nc1ccc2nncn2c1`, the RP-LC retention time is 660 s.
For `COc1ccc(C(=O)OCCN2CCN(C3=NS(=O)(=O)c4ccccc43)CC2)cc1OC`, the RP-LC retention time was determined as 618 s.
Next, `Cc1ccc(Nc2c(-c3ccc(N(C)C)cc3)nc3ncccn23)cc1C`: 792 s.
The molecule `CCOC(=O)c1c(C)[nH]c(CCC(=O)NC(C)CC)c1C` (stereo not given) came in with an RP-LC retention time of 762 s.
`Cc1cc(NC(=O)Cn2nc(N(C)C)c3ccccc3c2=O)ccc1Br` had an RP-LC retention time of 995 s.
Next, `CC(=O)c1cccc(NC(=O)c2cc(Cl)ccc2Cl)c1`: 848 s; `O=C(Nc1ccc2c(c1)OCCO2)N1CCC2(CC1)CC(N1CCOCC1)CCO2` (stereo not given): 572 s; `COc1ccc(Nc2c(-c3ccc(C)cc3)nc3cnc(Br)cn23)cc1OC`: 915 s.
Next, `O=C(Cn1c(=O)c2cc(C3CC3)nn2c2ncccc21)Nc1cccc(Cl)c1`: 848 s; `Nc1ccc(N2C(=O)c3ccccc3C2=O)c(Cl)c1`: 884 s; `Cc1cc(C)cc(NC(=O)CN2C(=O)CSc3ccc(C(=O)N4CCCC4)cc32)c1`: 634 s.
Molecule `O=C(Cc1ccc(Cl)cc1)N1C[C@@H]2C[C@H]1C[C@@H]2NS(=O)(=O)c1cccs1` came in with an RP-LC retention time of 838 s.
For the molecule `CCc1c(CN2CCN(c3ccccn3)CC2)csc1C`, the RP-LC retention time stood at 596 s.
With `CC(C)CN(Cc1ccc(F)cc1)Cc1cc(=O)n2cc(Cl)ccc2n1` the figure was 706 s.
Next, `CCC(C)C(NC(=O)c1ccccn1)C(=O)Nc1nc2ccccc2[nH]1` (stereo not given): 715 s.
Take `O=C(Nc1ccccc1)c1cccn1Cc1noc(C2CC2)n1`: the RP-LC retention time was 885 s.
In turn, `COC(=O)c1c(NCc2ccc(SC)cc2)c2cccc(Cl)c2[nH]c1=O` displayed an RP-LC retention time of 853 s.
With `CCCCNC(=O)C1(c2ccc(NC(C)=O)cc2)CCC1`, the RP-LC retention time came out at 704 s.
With `COc1cccc(C2CC(c3cccc(NS(C)(=O)=O)c3)=NN2C(=O)C(C)(C)C)c1O` (stereo not given) the figure was 820 s.
Turning to `CC1CCC(NC(=O)C2CCCN(C(=O)c3cc(-c4ccccn4)n[nH]3)C2)CC1` (stereo not given), the RP-LC retention time was 636 s.
`Cc1ccc(-c2noc(Cc3nc(-c4cccc(Cl)c4)cs3)n2)cc1` returned an RP-LC retention time of 1040 s.
For the molecule `CCOc1ccc(N2C(=O)Nc3ccccc3C2(O)C(=O)NCCCN2CCC(C)CC2)cc1` (stereo not given), the RP-LC retention time was determined as 582 s.
With `CC(C)CC(=O)Nc1ccc2nc(N3CCN(c4cccc(Cl)c4)CC3)cc(C(=O)O)c2c1`, the RP-LC retention time stood at 762 s.
`COC(=O)C1=C(C)NC(=O)NC1c1ccc(Cl)c(Cl)c1` (stereo not given) gave an RP-LC retention time of 726 s.
With `CCOc1nc2ccccc2nc1N1CCCC(C(=O)Nc2ccc(Br)cc2F)C1` (stereo not given) the figure was 1390 s; with `CSc1ccc(NC(=O)NC2CCN(c3ccc(F)c(C)c3)C2=O)cc1` (stereo not given), 873 s; with `CC1(c2nc(-c3ccccc3)no2)CCCN(Cc2ncon2)C1` (stereo not given), 754 s.
As for `Cc1ccc(-c2nnc(CC(=O)NCC(C)C)o2)cc1`, the RP-LC retention time came out at 775 s.
Molecule `CC(C)c1ccc(N2C(=O)C3N=NN(Cc4nc(-c5cccc(C(F)(F)F)c5)no4)C3C2=O)cc1` (stereo not given) came in with an RP-LC retention time of 1260 s.
`Cc1ccc(-n2c(-c3ccc(Cl)cc3)cn3c4c(=O)n(C)c(=O)n(C)c4nc23)c(C)c1` gave an RP-LC retention time of 1110 s.
On to `Cc1c(C(N)=O)nnn1-c1ccccc1`, for which the RP-LC retention time is 645 s.
`CSc1cccc(NC(=O)Cn2c(N3CCOCC3)nc(C)cc2=O)c1` came in with an RP-LC retention time of 694 s.
`C[C@H]1CN(C(=O)Cc2ccccc2F)C[C@@H]1c1nc(-c2cccnc2)no1` showed an RP-LC retention time of 795 s.
Next, `O=S(=O)(NCc1nc(-c2ccc(NS(=O)(=O)c3cccs3)cc2)no1)c1ccccc1`: 883 s; `Cc1ccc(C(=O)N2CCn3c(nnc3C(C)C)C2)s1`: 625 s; `Cc1c(-c2cccc(NC(=O)c3cccc(Br)c3)c2)nc2ncccn12`: 696 s.
`CC(C)n1cnc(S(=O)(=O)N2CCC(C(=O)NC3CCCCCC3)CC2)c1` returned an RP-LC retention time of 736 s.
`CCS(=O)(=O)N1CCC(c2noc(COCCOC)n2)CC1` showed an RP-LC retention time of 681 s.
The molecule `Cc1ccc(-c2noc(Cn3c(=O)n(Cc4ccco4)c(=O)c4ccccc43)n2)cc1` returned an RP-LC retention time of 1110 s.
For the molecule `CNC(=O)[C@@H]1CN(C(=O)Cc2ccsc2)C[C@H]1c1n[nH]c(C)n1`, the RP-LC retention time came out at 565 s.
In turn, `CC(=O)c1cccc(NC(=O)COc2ccc(C(C)(C)C)cc2)c1` gave an RP-LC retention time of 1010 s.
The molecule `Cc1ccc(-n2nc3c(N4CCCC(C(=O)NCc5ccccc5C)C4)nnc(C)c3c2C)cc1` (stereo not given) came in with an RP-LC retention time of 779 s.
Molecule `CNC(=O)C1CCCN(c2nc3ncn(CC(=O)Nc4cccc(Cl)c4)c(=O)c3s2)C1` (stereo not given) gave an RP-LC retention time of 672 s.
The molecule `CC(C)NC(=O)Cn1c2ccccc2c2ncn(Cc3nc(-c4ccccc4)no3)c(=O)c21` returned an RP-LC retention time of 848 s.
Molecule `COCc1nc(CCNC(=O)C2CCCO2)no1` (stereo not given) had an RP-LC retention time of 593 s.
For `COC(=O)c1ccc(NS(=O)(=O)c2ccc(-c3c(C)noc3C)cc2)cc1`, the RP-LC retention time came to 866 s.
Next, `Cc1cccc2nnc(N3CCN(C(=O)c4ccsc4)CC3)n12`: 614 s.
The molecule `CCOc1ccc(N2CC(c3nc(-c4ccc5c(c4)OCO5)no3)CC2=O)cc1` (stereo not given) returned an RP-LC retention time of 982 s.
For the molecule `COCc1cc(=O)n(CC(=O)Nc2ccc(C)cc2C)c(N2CCOCC2)n1`, the RP-LC retention time came to 844 s.
